Structures can show the parent of a compound that is named as a salt.
Experiments:
Type in all cases: cell-based
[1] = test system: K562 cells; assay: Cell growth, CellTiter-Glo Luminescent Cell Viability Assay, K562; details: Homo sapiens, 72 h incubation
Text: (§1) CellTiter-Glo® Luminescent Cell Viability Assay (Promega) is a homogeneous method of determining the number of viable cells in culture based on quantitation of the present ATP, which indicates the presence of metabolically active cells. The homogeneous assay procedure involves addition of a single reagent (CellTiter-Glo®Reagent) directly to the cells, which leads to cell lysis and generation of a luminescent signal proportional to the amount of the ATP and the number of cells present in culture. The assay relies on the properties of a proprietary thermostable luciferase (Ultra-Glo® recombinant luciferase), which generates a luminescent signal.
(§2) K562, A549 and HCT-116 cells, in exponential growth, were incubated for 72 h with different concentrations of the inhibitors. After 72 h, a volume of CellTiter-Glo® Reagent equal to the volume of cell culture medium was added. The content was mixed for 2 min to induce cell lysis. The luminescence was recorded after further 10 min at RT in order to obtain a stabilized luminescent signal.
(§3) The IC50 was calculated using GraphPad Software.
(§4) IC50 results were allocated to one of 3 ranges as follows: Range A: IC50≦1.0 μM; Range B: from 1.0 to 3.0 μM; Range C: IC50≧3.0 μM.

[2] = test system: HCT-116 cells; assay: Cell growth, CellTiter-Glo Luminescent Cell Viability Assay, HCT-116; details: Homo sapiens, 72 h incubation, read-out: IC50 HCT116
Text: as §1, §2, §3, §4

[3] = test system: A549 cells; assay: Cell growth, CellTiter-Glo Luminescent Cell Viability Assay, A549; details: Homo sapiens, 72 h incubation
Text: as §1, §2, §3, §4

SMILES	IC50 [1] [nM]	IC50 [2] [nM]	IC50 [3] [nM]
O=C(/C=C/c1cccc(/C=C/C(=O)N2CCN(c3ccncc3)CC2)n1)NO [Example 40, (E)-N-Hydroxy-3-{6-[(E)-3-oxo-3-(4-pyridin-4-yl-piperazin-1-yl)-propenyl]-pyridin-2-yl}-acrylamide hydrochloride]	≥ 3000	≥ 3000	≥ 3000
CC(C)(C)c1ccc(N2CCN(C(=O)/C=C/c3cccc(/C=C/C(=O)NO)n3)CC2)cc1 [Example 50, (E)-3-(6-{(E)-3-[4-(4-tert-Butyl-phenyl)-piperazin-1-yl]-3-oxo-propenyl}-pyridin-2-yl)-N-hydroxy-acrylamide hydrochloride]	1000 to 3000	1000 to 3000	≥ 3000
CS(=O)(=O)c1ccc(N2CCN(C(=O)/C=C/c3cccc(/C=C/C(=O)NO)n3)CC2)cc1 [Example 51, (E)-N-Hydroxy-3-(6-{(E)-3-[4-(4-methanesulfonyl-phenyl)-piperazin-1-yl]-3-oxo-propenyl}-pyridin-2-yl)-acrylamide hydrochloride]	≥ 3000	≥ 3000	≥ 3000
O=C(/C=C/c1cccc(/C=C/C(=O)N2CCc3c([nH]c4ccccc34)C2)n1)NO [Example 56, (E)-N-Hydroxy-3-{6-[(E)-3-oxo-3-(1,3,4,9-tetrahydro-beta-carbolin-2-yl)-propenyl]-pyridin-2-yl}-acrylamide hydrochloride]	1000 to 3000	1000 to 3000	≥ 3000
O=C(/C=C/c1cccc(/C=C/C(=O)N2CCC(c3nc4ccccc4o3)CC2)n1)NO [Example 57, (E)-3-{6-[(E)-3-(4-Benzooxazol-2-yl-piperidin-1-yl)-3-oxo-propenyl]-pyridin-2-yl}-N-hydroxy-acrylamide hydrochloride]	≥ 3000	1000 to 3000	≥ 3000
O=C(/C=C/c1cccc(/C=C/C(=O)N2CCC(c3nc4ccccc4[nH]3)CC2)n1)NO [Example 59, (E)-3-(6-{(E)-3-[4-(1H-Benzoimidazol-2-yl)-piperidin-1-yl]-3-oxo-propenyl}-pyridin-2-yl)-N-hydroxy-acrylamide hydrochloride]	≥ 3000	≥ 3000	≥ 3000
O=C(/C=C/c1cccc(/C=C/C(=O)N2CCC(n3c(-c4ccccc4)nc4ccccc43)CC2)n1)NO [Example 62, (E)-N-Hydroxy-3-(6-{(E)-3-oxo-3-[4-(2-phenyl-benzoimidazol-1-yl)-piperidin-1-yl]-propenyl}-pyridin-2-yl)-acrylamide hydrochloride]	≥ 3000	≥ 3000	≥ 3000
O=C(/C=C/c1cccc(/C=C/C(=O)N2CC=C(c3ccccc3)CC2)c1)NO [Example 75, (E)-N-Hydroxy-3-{3-[(E)-3-oxo-3-(4-phenyl-3,6-dihydro-2H-pyridin-1-yl)-propenyl]-phenyl}-acrylamide]	1000 to 3000	≤ 1000	1000 to 3000
O=C(/C=C/c1cccc(/C=C/C(=O)N2CCC(C(=O)c3ccccc3)CC2)c1)NO [Example 77, (E)-3-{3-[(E)-3-(4-Benzoyl-piperidin-1-yl)-3-oxo-propenyl]phenyl}-N-hydroxy-acrylamide]	1000 to 3000	1000 to 3000	≥ 3000
O=C(/C=C/c1cccc(/C=C/C(=O)N2CCC[C@H](c3ccccc3)C2)c1)NO [Example 81, (E)-N-Hydroxy-3-{3-[(E)-3-oxo-3-((R)-3-phenyl-piperidin-1-yl)-propenyl]-phenyl}acrylamide]	≥ 3000	≥ 3000	≥ 3000
O=C(/C=C/c1cccc(/C=C/C(=O)N2CCC[C@@H](c3ccccc3)C2)c1)NO [Example 82, (E)-N-Hydroxy-3-{3-[(E)-3-oxo-3-((S)-3-phenyl-piperidin-1-yl)-propenyl]-phenyl}-acrylamide]	≥ 3000	≥ 3000	≥ 3000

The remaining lines, values ahead:

IC50 [1] [nM]	IC50 [2] [nM]	IC50 [3] [nM]	SMILES
1000 to 3000	1000 to 3000	≥ 3000	O=C(/C=C/c1cccc(/C=C/C(=O)N2C[C@@H]3C[C@H]2CN3c2ccc(Cl)cc2)n1)NO [Example 41, (E)-3-(6-{(E)-3-[5-(4-Chloro-phenyl)-(1S,4S)-2,5-diaza-bicyclo[2.2.1]hept-2-yl]-3-oxo-propenyl}-pyridin-2-yl)-N-hydroxy-acrylamide trifluoroacetate]
1000 to 3000	1000 to 3000	≥ 3000	O=C(/C=C/c1cccc(/C=C/C(=O)N2CCc3[nH]c4ccccc4c3C2)n1)NO [Example 45, (E)-N-Hydroxy-3-{6-[(E)-3-oxo-3-(1,3,4,5-tetrahydro-pyrido[4,3-b]indol-2-yl)-propenyl]-pyridin-2-yl}-acrylamide hydrochloride]
1000 to 3000	≤ 1000	1000 to 3000	CC(C)c1ccc(N2CCN(C(=O)/C=C/c3cccc(/C=C/C(=O)NO)n3)CC2)cc1 [Example 49, (E)-N-Hydroxy-3-(6-{(E)-3-[4-(4-isopropyl-phenyl)-piperazin-1-yl]-3-oxo-propenyl}-pyridin-2-yl)-acrylamide hydrochloride]
≤ 1000	≤ 1000	≤ 1000	O=C(/C=C/c1cccc(/C=C/C(=O)N2CCCc3ccccc32)n1)NO [Example 55, (E)-3-{6-[(E)-3-(3,4-Dihydro-2H-quinolin-1-yl)-3-oxo-propenyl]-pyridin-2-yl}-N-hydroxy-acrylamide trifluoroacetate]
≤ 1000	≤ 1000	1000 to 3000	O=C(/C=C/c1cccc(/C=C/C(=O)N2CCc3ccccc3C2)n1)NO [Example 58, (E)-3-{6-[(E)-3-(3,4-Dihydro-1H-isoquinolin-2-yl)-3-oxo-propenyl]-pyridin-2-yl}-N-hydroxy-acrylamide hydrochloride]
≤ 1000	1000 to 3000	≥ 3000	O=C(/C=C/c1cccc(/C=C/C(=O)N2CCC3(C=Cc4ccccc43)CC2)n1)NO [Example 60, (E)-3-(6-{(E)-3-[Spiro[indene-1,4′-piperidine-1′-yl]-3-oxo-propenyl}-pyridin-2-yl)-N-hydroxy-acrylamide hydrochloride]
≤ 1000	≤ 1000	1000 to 3000	O=C(/C=C/c1cccc(/C=C/C(=O)N2CCC3(CC2)OCc2ccccc23)n1)NO [Example 61, (E)-3-(6-{(E)-3-[Spiro[2-benzofuran-1,4′-piperidine-1′-yl]-3-oxo-propenyl}-pyridin-2-yl)-N-hydroxy-acrylamide hydrochloride]
≤ 1000	≤ 1000	≤ 1000	O=C(/C=C/c1cccc(/C=C/C(=O)N2CCC[C@@H](c3ccccc3)C2)n1)NO [Example 73, (E)-N-Hydroxy-3-{6-[(E)-3-oxo-3-((S)-3-phenyl-piperidin-1-yl)-propenyl]-pyridin-2-yl}-acrylamide hydrochloride]
≤ 1000	≤ 1000	≤ 1000	O=C(/C=C/c1cccc(/C=C/C(=O)N2CCCC(c3ccccc3)C2)n1)NO (stereo not drawn) [Example 74, (E)-N-Hydroxy-3-{6-[(E)-3-oxo-3-((12)-3-phenyl-piperidin-1-yl)-propenyl]-pyridin-2-yl}-acrylamide hydrochloride]
≤ 1000	≤ 1000	≤ 1000	O=C(/C=C/c1cccc(/C=C/C(=O)N2CCN(c3ccc(Cl)cc3)CC2)c1)NO [Example 76, (E)-3-(3-{(E)-3-[4-(4-Chloro-phenyl)-piperazin-1-yl]-3-oxo-propenyl}-phenyl)-N-hydroxy-acrylamide hydrochloride]
